Test [1] deals with Phosphorylation of ERK1/2 in MIA PaCa-2 cells. Description: Phospho-ERK1/2 MSD assay in MIA PaCa-2 cells. The class given is cell-based. As to conditions: read-out: p-ERK IC50 (2 h, MiaPaCa-2; μM), 2 h compound treatment, MIA PaCa-2 cells, EGF stimulated. The essentials:
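Phospho-ERK1/2 measured by MSD electrochemiluminescence kit in RIPA lysates of MIA PaCa-2 cells. Cells were treated with compound titrations for 2 or 4 h at 37 °C, 5% CO2, followed by a 10 min pulse of 10 ng/mL EGF.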

Test [2] addresses GDP-bound KRAS protein (aa 1-169), containing both G12C and C118A amino acid substitutions (Homo sapiens (Human), UniProt P01116, C118A/G12C). The test can be described thus: Coupled nucleotide exchange assay (SOS-mediated nucleotide exchange, AlphaScreen). Type of test: biochemical. As to conditions: 5 min compound pre-incubation; for IC50: read-out: Coupled exchange IC50 (5 min; μM). For orientation: Alpha assays give light when donor and acceptor beads are brought close together.

For test [3], the system named is Phosphorylation of ERK1/2 in A549 cells. Description: Phospho-ERK1/2 MSD assay in A549 cells. Type of test: cell-based. The note with it: read-out: p-ERK IC50 (2 h, A549; μM), 2 h compound treatment, A549 cells, EGF stimulated. The method in brief: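 Readout: MSD phospho-ERK1/2 signal after compound (2 or 4 h) and 10 min EGF stimulation at 10 ng/mL.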

Like-named read-outs stand apart in the source and are kept apart here. Bounds are passed on as bounds.

GDP-bound KRAS protein (aa 1-169), containing both G12C and C118A amino acid substitutions, sequence (P01116 other isoform, or with tags, fused parts or gaps G12C/C118A): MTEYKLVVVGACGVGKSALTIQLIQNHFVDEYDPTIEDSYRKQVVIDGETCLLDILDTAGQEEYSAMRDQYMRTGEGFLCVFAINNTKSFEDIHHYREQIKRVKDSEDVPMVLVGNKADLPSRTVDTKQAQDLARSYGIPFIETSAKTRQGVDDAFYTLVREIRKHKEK

One may read the IC50 as the point on the concentration scale where inhibition reaches its midpoint. For `C=CC(=O)N1C[C@H](C)N(c2nc(=O)n(-c3c(C)cc(CN(C)C)cc3C(C)C)c3nc(-c4ccccc4F)c(Cl)cc23)C[C@H]1C` (single isomer, unassigned) [Example 121-3], the IC50 in test [1] (Homo sapiens, MIA PaCa-2, 2 h) is 0.027 µM; in test [3] (Homo sapiens, A549, 2 h), above 7.5 µM. Also, the “Coupled exchange IC50 (5 min; μM)” value in test [2] stood at 0.066 µM.
Regarding `C=CC(=O)N1C[C@H](C)N(c2nc(=O)n(-c3c(N(C)C)ccnc3C(C)C)c3nc(-c4c(F)cccc4NC(=O)CC)c(Cl)cc23)C[C@H]1C` (single isomer, unassigned) [Example 122-2-2], the IC50 in test [1] is 0.63 µM; in test [2] it was 0.088 µM; in test [3] (Homo sapiens, A549, 2 h), above 7.5 µM.
As to `C=CC(=O)N1C[C@H](C)N(c2nc(=O)n(-c3c(N(C)C)ccnc3C(C)C)c3nc(-c4c(F)cccc4NC(=O)C4CC4)c(Cl)cc23)C[C@H]1C` (single isomer, unassigned) [Example 122-3-2], the IC50 was 0.145 µM in test [1] (Homo sapiens, MIA PaCa-2, 2 h); 0.179 µM in test [2]; above 7.5 µM in test [3] (Homo sapiens, A549, 2 h).
`C=CC(=O)N1[C@H](C)CN(c2nc(=O)n(-c3c(C)cc(N)nc3C(C)C)c3nc(-c4c(O)cccc4F)c(F)cc23)C[C@@H]1C` (single isomer, unassigned) [Example 123-2]: the IC50 in test [1] (Homo sapiens, MIA PaCa-2, 2 h) is 0.26 µM; in test [2], 0.4 µM; in test [3] (Homo sapiens, A549, 2 h), above 7.5 µM.
In the case of `C=CC(=O)N1[C@H](C)CN(c2nc(=O)n(-c3c(C)cc(N)nc3C(C)C)c3nc(-c4c(N)cccc4F)c(F)cc23)C[C@@H]1C` (single isomer, unassigned) [Example 123-6], the concentration for half-maximal inhibition (IC50) in test [1] is 0.133 µM; in test [2], 0.231 µM; in test [3] (Homo sapiens, A549, 2 h), above 7.5 µM.
Consider `C=CC(=O)N1C[C@H](C)N(c2nc(=O)n(-c3c(C(C)C)ccnc3C(C)C)c3nc(-c4ccccc4C)c(Cl)cc23)C[C@H]1C` (single isomer, unassigned) [Example 124-2], for which the IC50 is 0.032 µM in test [1] (Homo sapiens, MIA PaCa-2, 2 h); 0.033 µM in test [2]; above 7.5 µM in test [3] (Homo sapiens, A549, 2 h).
Taken in the same sequence, the figures for `C=CC(=O)N1C[C@H](C)N(c2nc(=O)n(-c3c(C(C)C)ccnc3C(C)C)c3nc(-c4ccccc4C(F)(F)F)c(Cl)cc23)C[C@H]1C` (single isomer, unassigned) [Example 124-3] were 0.032 µM, 0.028 µM and above 7.5 µM.
For `C=CC(=O)N1C[C@H](C)N(c2nc(=O)n(-c3c(C(C)C)ccnc3C(C)C)c3nc(-c4c(O)cccc4F)c(Cl)cc23)C[C@H]1C` (single isomer, unassigned) [Example 124-4] the same measures were 0.016 µM, 0.022 µM and above 7.5 µM.
As for `C=CC(=O)N1C[C@H](C)N(c2nc(=O)n(-c3c(C4CC4)ccnc3C(C)C)c3nc(-c4ccccc4C)c(Cl)cc23)C[C@H]1C` (single isomer, unassigned) [Example 124-9], the IC50 is 0.169 µM in test [1] and above 7.5 µM in test [3] (Homo sapiens, A549, 2 h). Further, in test [2], the “Coupled exchange IC50 (5 min; μM)” value amounted to 0.122 µM.
Consider `C=CC(=O)N1CCN(c2nc(=O)n(-c3c(C(C)C)ccnc3C(C)C)c3nc(-c4ccccc4C)c(Cl)cc23)[C@@H](C)C1` (single isomer, unassigned) [Example 124-10], for which the 50% inhibitory concentration (IC50) in test [1] (Homo sapiens, MIA PaCa-2, 2 h) was 0.049 µM; in test [2], 0.046 µM; in test [3] (Homo sapiens, A549, 2 h), above 7.5 µM.
As for `C=CC(=O)N1C[C@H](C)N(c2nc(=O)n(-c3c(C(C)C)ccnc3C(C)C)c3nc(-c4ccccc4C(C)C)c(Cl)cc23)C[C@H]1C` (single isomer, unassigned) [Example 125-8], the concentration for half-maximal inhibition (IC50) in test [1] turned out to be 0.137 µM; in test [2] it was 0.113 µM; in test [3], 5.05 µM.
`C=CC(=O)N1C[C@H](C)N(c2nc(=O)n(-c3c(C4CC4)ccnc3C(C)C)c3nc(-c4ccccc4C)c(Cl)cc23)C[C@H]1C` (single isomer, unassigned) [Example 125-9]: the half-maximal inhibitory concentration (IC50) in test [1] is 0.048 µM; in test [3] it was above 7.5 µM. For the same compound, the “Coupled exchange IC50 (5 min; μM)” value in test [2] stood at 0.035 µM.
For `C=CC(=O)N1CCN(c2nc(=O)n(-c3c(C(C)C)ccnc3C(C)C)c3nc(-c4ccccc4C)c(Cl)cc23)[C@@H](C)C1` (single isomer, unassigned) [Example 125-10], the IC50 in test [1] was 0.068 µM; in test [2], 0.032 µM; in test [3], above 7.5 µM.
Taken in the same sequence, the figures for `C=CC(=O)N1CCN(c2nc(=O)n(CC(C)(C)C)c3nc(-c4ccccc4F)c(Cl)cc23)CC1CC#N` (single isomer, unassigned) [Example 145-1-1, 2-[4-[6-Chloro-1-(2,2-dimethylpropyl)-7-(2-fluorophenyl)-2-oxo-pyrido[2,3-d]pyrimidin-4-yl]-1-prop-2-enoyl-piperazin-2-yl]acetonitrile] were 1.3 µM, 1.71 µM and 5.53 µM.
Taken in the same sequence, the figures for `C=CC(=O)N1CCN(c2nc(=O)n(CC(C)(C)C)c3nc(-c4ccccc4F)c(Cl)cc23)CC1CC#N` (single isomer, unassigned) [Example 145-1-2, 2-[4-[6-Chloro-1-(2,2-dimethylpropyl)-7-(2-fluorophenyl)-2-oxo-pyrido[2,3-d]pyrimidin-4-yl]-1-prop-2-enoyl-piperazin-2-yl]acetonitrile] were 1.05 µM, 1.15 µM and 3.94 µM.
Regarding `C=CC(=O)N1C[C@H](C)N(c2nc(=O)n3c4nc(c(Cl)cc24)-c2ccccc2C/C=C\Cc2cccc(C(C)C)c2-3)C[C@H]1C` (single isomer, unassigned) [Example 146-2-2], the IC50 in test [1] (Homo sapiens, MIA PaCa-2, 2 h) turned out to be 0.096 µM; in test [2] it was 0.061 µM; in test [3] (Homo sapiens, A549, 2 h) it was 5.48 µM.
Taken in the same sequence, the figures for `C=CC(=O)N1C[C@H](C)N(c2nc(=O)n3c4nc(c(Cl)cc24)-c2ccccc2C/C=C/Cc2ccccc2-3)C[C@H]1C` (single isomer, unassigned) [Example 146-3-2] were 1.05 µM, 4.4 µM and above 7.5 µM.
With `C=CC(=O)N1C[C@H](C)N(c2nc(=O)n3c4nc(c(Cl)cc24)-c2ccccc2C/C=C\Cc2ccccc2-3)C[C@H]1C` (single isomer, unassigned) [Example 146-3-4], the IC50 in test [1] is 1.26 µM; in test [2], 7.96 µM; in test [3] it was above 7.5 µM.
`C=CC(=O)N1C[C@H](C)N(c2nc(=O)n(-c3c(C)cc(CC)nc3C(C)C)c3nc(-c4ccccc4F)c(Cl)cc23)C[C@H]1C` (single isomer, unassigned) [Example 166-1]: the IC50 in test [1] (Homo sapiens, MIA PaCa-2, 2 h) was 0.118 µM; in test [3] (Homo sapiens, A549, 2 h), above 7.5 µM. Also, the “Coupled exchange IC50 (5 min; μM)” value in test [2] stood at 0.049 µM.
For the compound `C=CC(=O)N1CCN(c2nc(=O)n(-c3c(C)cc(N)nc3C(C)C)c3nc(-c4ccccc4F)c(Cl)cc23)[C@@H](C)C1` (single isomer, unassigned) [Example 183-2], the IC50 in test [1] (Homo sapiens, MIA PaCa-2, 2 h) is 0.043 µM; in test [2], 0.058 µM; in test [3] (Homo sapiens, A549, 2 h), above 7.5 µM.
Turning to `C=CC(=O)N1C[C@H](C)N(c2nc(=O)n(-c3c(N)ncnc3C(C)C)c3nc(-c4ccccc4F)c(Cl)cc23)C[C@H]1C` (single isomer, unassigned) [Example 189-1], the IC50 is 0.072 µM in test [1] (Homo sapiens, MIA PaCa-2, 2 h) and above 7.5 µM in test [3] (Homo sapiens, A549, 2 h). Also, the “Coupled exchange IC50 (5 min; μM)” value in test [2] was determined as 0.036 µM.
For `C=CC(=O)N1C[C@H](C)N(c2nc(=O)n(-c3c(C)nc(Cl)nc3C(C)C)c3nc(-c4ccccc4F)c(Cl)cc23)C[C@H]1C` (single isomer, unassigned) [Example 191-2] the same measures were 0.079 µM, above 7.5 µM and 0.079 µM.

Values taken from patent US11285156B2, “Substituted piperazines as KRAS G12C inhibitors” (Amgen Inc., priority 2018, dated 2022).
